Experimental data published in US10822317B2, “Methods and compositions for wound healing” (QBiotics Limited, priority 2013, dated 2020).

What was measured:
[1] = system: human peripheral blood monocytes; assay: Differentiation of monocytes into macrophages; type: cell-based; conditions: 10-fold dilutions; 4 days; adherence and morphology
Protocol: To determine potential effects of Compound 1 and fifteen other epoxy-tigliane compounds in the array on monocyte differentiation, human peripheral blood mononuclear cells (PBMCs) were isolated by Ficoll-Paque sedimentation of heparinised blood from a human donor, and plated at 100,000 cells/well in RPMI-1640 10% FCS. Duplicate wells were treated with 10-fold dilutions of the compounds and incubated at 37° C. for 4 days. The wells were scored visually for cell attachment and morphology, then washed twice with PBS, stained with sulfurhodamine and the incorporate stain quantitated in an ELISA reader. The plates were then washed with water and stained with 1% crystal violet in methanol for photography and scoring of adherent cell morphology.

[2] = system: human neonatal fibroblasts; assay: Scratch closure, human neonatal fibroblasts, Method 3 (IncuCyte); type: cell-based; conditions: 200 ng/mL
Protocol: The ability of early. passage neonatal foreskin fibroblasts (NFF) cultured in RPMI 1640-10% foetal calf serum to migrate across a scratch wound made in a confluent monolayer following treatment with purified compounds or plant extracts was determined using one or more of the following three methods.
Cells were seeded and treated in 96-well plates as in Method 2 (5 replicate wells per dilution), except that the scratches were made in one action with a tool having 96, 1 mm thick teflon coated pins (Essen Bioscience Woundmaker). The plate was then placed in a 37° C., 5% CO2 humidified atmosphere in an IncuCyte FLR instrument programmed to photograph each well under phase contrast at 3 hr intervals for 42 hours. The software determined the initial scratch boundaries and their rate of closure. Accelerated wound closure was considered to be significant if the initial rate of closure was >10% of the untreated controls.

Row | Compound | Differentiation endpoint (endpoint concentration in dilution series for induction of macrophage phenotype) [1] [ng/mL] | % closure compared to control [2] [%]
1 | CCCCCC(=O)OC12C(O)C(C)C3(O)C(C4OC4(CO)C(O)C4(O)C(=O)C(C)=CC43)C1C2(C)C (stereo not drawn) [Compound 53, 13-hexanoyl-6,7-epoxy-4,5,9,12,13,20-hexahydroxy-1-tigliaen-3-one] | 100 | –
2 | CCCCCC(O)C(O)/C=C/C=C/C(=O)OC1C(C)C2(O)C(C3OC3(CO)C(O)C3(O)C(=O)C(C)=CC32)C2C(C)(C)C12OC(=O)C(C)CC (stereo not drawn) [Compound 11, 12-[(2E,4E)-6,7-dihydroxydodeca-2,4-dienoyl]-13-(2-methylbutanoyl)-6,7-epoxy-4,5,9,12,13,20-hexahydroxy-1-tigliaen-3-one] | – | 270
3 | 12,13-di-heptanoyl-6,7-epoxy-4,5,9,12,13,20-hexahydroxy-1-tigliaen-3-one [Compound 49] | 1 | –
4 | 12-(3-butenoyl)-13-nonanoyl-6,7-epoxy-4,5,9,12,13,20-hexahydroxy-1-tigliaen-3-one [Compound 22] | 100 | 400
5 | 12-benzoyl-13-butanoyl-6,7-epoxy-4,5,9,12,13,20-hexahydroxy-1-tigliaen-3-one [Compound 28] | – | 140
6 | 12,13-di-nonoyl-6,7-epoxy-4,5,9,12,13,20-hexahydroxy-1-tigliaen-3-one [Compound 41] | 0.1 | –
7 | 12-myristoyl-13-acetyl-6,7-epoxy-4,5,9,12,13,20-hexahydroxy-1-tigliaen-3-one [Compound 50] | 1 | –
8 | CCCCCC=CC=CC(=O)OC1C(C)C2(O)C(C3OC3(CO)C(O)C3(O)C(=O)C(C)=CC32)C2C(C)(C)C12OC(=O)C(C)CC (stereo not drawn) [Compound 18, 12-[(2Z,4E)-deca-2,4-dienoyl]-13-(2-methylbutanoyl)-6,7-epoxy-4,5,9,12,13,20-hexahydroxy-1-tigliaen-3-one] | – | 220
9 | CCCCCC=CC=CC(=O)OC1C(C)C2(O)C(C3OC3(CO)C(O)C3(O)C(=O)C(C)=CC32)C2C(C)(C)C12OC(=O)C(C)CC (stereo not drawn) [Compound 24, 12-[(2E,4E)-deca-2,4-dienoyl]-13-(2-methylbutanoyl)-6,7-epoxy-4,5,9,12,13,20-hexahydroxy-1-tigliaen-3-one] | 1 | –
10 | CCC(C)C(=O)OC1C(C)C2(O)C(C3OC3(CO)C(O)C3(O)C(=O)C(C)=CC32)C2C(C)(C)C12OC(C)=O (stereo not drawn) [Compound 52, 12-(2-methylbutanoyl)-13-acetyl-6,7-epoxy-4,5,9,12,13,20-hexahydroxy-1-tigliaen-3-one] | 10 | –
11 | 12-benzoyl-13-(2-methylbutanoyl)-6,7-epoxy-4,5,9,12,13,20-hexahydroxy-1-tigliaen-3-one [Compound 23] | 1 | 130
12 | CCCCCC=CC=CC=CC(=O)OC1C(C)C2(O)C(C3OC3(CO)C(O)C3(O)C(=O)C(C)=CC32)C2C(C)(C)C12OC(=O)C(C)CC (stereo not drawn) [Compound 3, 12-[(2E,4E,6E)-dodeca-2,4,6-trienoyl]-13-(2-methylbutanoyl)-6,7-epoxy-4,5,9,12,13,20-hexahydroxy-1-tigliaen-3-one] | 10 | 270
13 | 12-tigloyl-13-butanoyl-6,7-epoxy-4,5,9,12,13,20-hexahydroxy-1-tigliaen-3-one [Compound 21] | 10 | 200
14 | 12-myristoyl-13-(2-methylbutanoyl)-6,7-epoxy-4,5,9,12,13,20-hexahydroxy-1-tigliaen-3-one [Compound 51] | 1 | –
